Reference: EPA's ToxRefDB 2

Columns and labels:
rat [1] = details: Combined chronic toxicity/carcinogenicity, sprague dawley, Oral, Feed, dose end: 28 month
rat [2] = details: Subchronic oral toxicity in rodents, sprague dawley, Feed, dose end: 90 day, group: cholinesterase, cholinesterase / cholinesterase / cholinesterase / brain cholinesterase (che)
rat [3] = details: Prenatal developmental toxicity study, sprague dawley, Oral, Gavage/Intubation, dose end: 15 GD
dog = details: Chronic toxicity, beagle, Oral, Feed, dose end: 52 week
rat [4] = details: Subchronic oral toxicity in rodents, fischer, Feed, dose end: 13 week, group: systemic
rat [5] = details: Developmental neurotoxicity study; sprague dawley; Oral; Gavage/Intubation; dose end: 112 PND; group: cannot be grouped; systemic / organ weight / brain / absolute
rat [6] = details: Subchronic oral toxicity in rodents, fischer, Feed, dose end: 13 week, group: systemic, systemic / clinical chemistry / cholesterol / cholesterol + systemic / clinical chemistry / protein / protein + systemic / clinical …
mouse [7] = details: Subchronic oral toxicity in rodents, b6c3f1, Feed, dose end: 13 week, group: systemic, systemic / in life observation / body weight / body weight + systemic / in life observation / body weight / body weight gain
mouse [8] = details: Developmental neurotoxicity study, other, Oral, Gavage/Intubation, dose end: 21 PND, group: cannot be grouped
mouse [9] = details: Subchronic oral toxicity in rodents, b6c3f1, Feed, dose end: 13 week, group: systemic
rat [10] = details: Combined chronic toxicity/carcinogenicity, fischer, Oral, Feed, dose end: 2 year, group: systemic
rat [11] = details: Developmental neurotoxicity study, sprague dawley, Oral, Gavage/Intubation, dose end: 70 PND, group: cannot be grouped
rat [12] = details: Developmental neurotoxicity study; sprague dawley; Oral; Gavage/Intubation; dose end: 57 PND; group: cannot be grouped; reproductive / offspring survival early / birth index / birth index + systemic / in life observation / body weight / body weight + …
rat [13] = details: Subchronic oral toxicity in rodents, fischer, Feed, dose end: 13 week, group: systemic; remark: listed apart in the source
rat [14] = details: Developmental neurotoxicity study, sprague dawley, Oral, Gavage/Intubation, dose end: 90 PND, group: cannot be grouped
[15] = group: cholinesterase, cholinesterase / cholinesterase / cholinesterase / brain cholinesterase (che) + cholinesterase / cholinesterase / cholinesterase / …
[16] = group: systemic, systemic / pathology microscopic / adrenal gland / pheochromocytoma benign + systemic / in life observation / clinical signs / aggressive …
[17] = group: developmental, developmental / developmental malformation / bone / ossification sites
[18] = group: maternal, systemic / in life observation / body weight / body weight + systemic / in life observation / body weight / body weight gain + systemic / in…
[19] = group: cholinesterase, cholinesterase / cholinesterase / cholinesterase / brain cholinesterase (che)
[20] = group: systemic, systemic / hematology / erythrocyte (rbc) count differential / erythrocyte (rbc) + systemic / hematology / hematocrit (hct) / hematocrit (…
[21] = systemic / in life observation / body weight / body weight + systemic / in life observation / body weight / body weight gain
[22] = systemic / in life observation / body weight / body weight + systemic / in life observation / body weight / body weight gain + systemic / …
[23] = developmental / offspring survival late / [other] / [other] + systemic / in life observation / clinical signs / ataxia + systemic / in life …
[24] = systemic / in life observation / clinical signs / head tilt
[25] = systemic / in life observation / body weight / body weight
[26] = systemic / in life observation / body weight / body weight + systemic / organ weight / liver / absolute
[27] = systemic / in life observation / body weight / body weight + systemic / in life observation / body weight / body weight gain + developmental…
[28] = systemic / in life observation / body weight / body weight + systemic / in life observation / body weight / body weight gain + systemic / in…
[29] = systemic / in life observation / body weight / body weight + developmental / offspring survival late / [other] / [other] + systemic / in …

`COP(=O)(NC(C)=O)SC` (configuration not stated) [Acephate] was tested, and the LEL (rat [1]; [15]) was 0.25 mg/kg/day, the LOAEL (rat [1]; [15]) was 35 mg/kg/day and the NEL (rat [1]; [15]) was < 0.25 mg/kg/day. The NOAEL (rat [1]; [15]) was 2.5 mg/kg/day, the LEL (rat [1]; [16]) was 0.25 mg/kg/day and the LOAEL (rat [1]; [16]) was > 35 mg/kg/day. For the same compound, the NEL (rat [1]; [16]) was < 0.25 mg/kg/day, the NOAEL (rat [1]; [16]) was ≥ 35 mg/kg/day and the LEL (rat [2]) was 0.12 mg/kg/day. The LOAEL (rat [2]) was 0.12 mg/kg/day, the NEL (rat [2]) was < 0.12 mg/kg/day and the NOAEL (rat [2]) was < 0.12 mg/kg/day. For the same compound, the LEL (rat [3]; [17]) was 75 mg/kg/day, the LOAEL (rat [3]; [17]) was 75 mg/kg/day and the NEL (rat [3]; [17]) was 20 mg/kg/day. For the same compound, the NOAEL (rat [3]; [17]) was 20 mg/kg/day, the LEL (rat [3]; [18]) was 20 mg/kg/day and the LOAEL (rat [3]; [18]) was 20 mg/kg/day. For the same compound, the NEL (rat [3]; [18]) was 5 mg/kg/day, the NOAEL (rat [3]; [18]) was 5 mg/kg/day and the LEL (dog; [19]) was 0.27 mg/kg/day. The LOAEL (dog; [19]) was 0.27 mg/kg/day, the NEL (dog; [19]) was < 0.27 mg/kg/day and the NOAEL (dog; [19]) was < 0.27 mg/kg/day. It also gave an LEL (dog; [20]) of 20.2 mg/kg/day, an LOAEL (dog; [20]) of 20.2 mg/kg/day and an NEL (dog; [20]) of 3.11 mg/kg/day. The NOAEL (dog; [20]) was 3.11 mg/kg/day.

`O=C1NC(=O)C(c2ccccc2)(c2ccccc2)N1` [5,5-Diphenylhydantoin] showed an LEL (rat [4]; [21]) of 122 mg/kg/day, an LOAEL (rat [4]; [22]) of 234 mg/kg/day and an NEL (rat [4]; [22]) of 60.7 mg/kg/day. For the same compound, the NOAEL (rat [4]; [22]) was 122 mg/kg/day, the LEL (rat [5]) was 100 mg/kg/day and the LOAEL (rat [5]) was > 100 mg/kg/day. For the same compound, the NEL (rat [5]) was 50 mg/kg/day, the NOAEL (rat [5]) was ≥ 100 mg/kg/day and the LEL (rat [6]) was 50 mg/kg/day. The LOAEL (rat [6]) was > 100 mg/kg/day, the NEL (rat [6]) was 25 mg/kg/day and the NOAEL (rat [6]) was ≥ 100 mg/kg/day. The LEL (mouse [7]) was 20.5 mg/kg/day, the LOAEL (mouse [7]) was 20.5 mg/kg/day and the NEL (mouse [7]) was < 20.5 mg/kg/day. For the same compound, the NOAEL (mouse [7]) was < 20.5 mg/kg/day, the LOAEL (mouse [8]; [23]) was > 35 mg/kg/day and the NOAEL (mouse [8]; [23]) was ≥ 35 mg/kg/day. For the same compound, the LEL (mouse [8]; [24]) was 10 mg/kg/day, the NEL (mouse [8]; [24]) was < 10 mg/kg/day and the LEL (mouse [9]; [21]) was 11.2 mg/kg/day. For the same compound, the NEL (mouse [9]; [21]) was < 11.2 mg/kg/day, the LOAEL (mouse [9]; [22]) was 90 mg/kg/day and the NOAEL (mouse [9]; systemic / pathology microscopic / liver / hypertrophy + systemic / in life observation / mortality / mortality) was 45 mg/kg/day. The NEL (rat [10]; [25]) was 12.5 mg/kg/day, the LEL (rat [10]; [26]) was 25 mg/kg/day and the LOAEL (rat [10]; [26]) was > 25 mg/kg/day. The NOAEL (rat [10]; [26]) was ≥ 25 mg/kg/day, the NEL (rat [11]; [21]) was 150 mg/kg/day and the LEL (rat [11]; [27]) was 200 mg/kg/day. For the same compound, the LOAEL (rat [11]; [27]) was > 200 mg/kg/day, the NOAEL (rat [11]; [27]) was ≥ 200 mg/kg/day and the LEL (rat [12]) was 200 mg/kg/day. For the same compound, the LOAEL (rat [12]) was > 200 mg/kg/day, the NEL (rat [12]) was < 200 mg/kg/day and the NOAEL (rat [12]) was ≥ 200 mg/kg/day. The LEL (rat [13]; [21]) was 122 mg/kg/day, the LOAEL (rat [13]; [21]) was 122 mg/kg/day and the NEL (rat [13]; [28]) was 60.7 mg/kg/day. For the same compound, the NOAEL (rat [13]; [28]) was 60.7 mg/kg/day, the LEL (rat [14]; [25]) was 100 mg/kg/day and the NEL (rat [14]; [25]) was < 100 mg/kg/day. The LOAEL (rat [14]; [29]) was > 200 mg/kg/day and the NOAEL (rat [14]; [29]) was ≥ 200 mg/kg/day.
